{
  "source": "patent EP0574185B1",
  "about": "“PGE1 analogs” (NEWPHARMA INTERNATIONAL CORPORATION, priority 1992, dated 1993)",
  "key": {"[1]": {"test_system": "anesthetized rat", "assay": "Blood pressure and heart rate in anesthetized rat", "type": "in vivo, male Wistar rats", "details": "i.v.; for HR (Heart Rate): basal 440,8 ± 9,7; for Δ MBP (Mean Blood Pressure): basal MBP 120,9 ± 4,6, n= 6", "method": "The acute effect of B-407 on the cardiovascular system was studied. After doses of 10 µg/kg, 30 µg/kg, and 100 µg/kg, administered intravenously (i.v.) the arterial blood pressure and heart rate were evaluated on male Wistar rats weighing 300 g to 350 g. Rats were anesthetized with 40 mg/kg, i.p., of sodium pentobarbital. The left jugular vein was cannulated by means of polyethylene tubing to allow the i.v. administration of drugs. The trachea was cannulated to facilitate ventilation and the right carotid artery was cannulated to record blood pressure and heart beat. A dose of 350 UI/kg, i.v., sodium heparin was administered. The catheter of the artery was connected to a pressure transducer attached to a Berger polygraph. The volume of the i.v. administrations was 0.4 ml/kg. The working protocol was as follows:\nA steady-state recording was obtained over a 30 minutes time period. Then a dose of 0.5 µg/kg of noradrenaline followed by 0.5 µg/kg of isoproterenol were administered over 5 to 10 minutes. After 5 min of recording, increasing doses of B-407 were administered every 15 minutes. The mean arterial blood pressure (mm Hg) was obtained by calculating the average of the values of […]. The heart rate (beats/min) was obtained by counting the number of contractions by units of time."}, "[2]": {"test_system": "Beagle dogs", "assay": "Volume and acidity of histamine stimulated gastric secretion in dogs (gastric fistula)", "type": "in vivo", "method": "Healthy adult Beagle dogs weighing 10 kg to 13 kg were used.\nThe basal response of each dog to histamine, as represented by volume of gastric secretion and acid concentration, was carried out six times. For this purpose the dogs were placed in a Pavlov support and plastic bottles were connected to a Thomas type gastric fistula after cleaning it when necessary.\nSaline i.v. infusion was started by means of a Butterfly G 21 (Abbott) needle connected to a 500 ml bottle of sterile pyrogen free isotonic saline solution through an inert plastic cannula. The solution dripping was adjusted to 1 ml/min.\nThe volume of gastric secretion obtained from fifteen minutes collection periods, expressed as ml/15 min, was determined. Aliquots of 5 ml were kept in the freezer to perform acid titration on the next day. The first three collection periods were considered as the actual basal gastric secretion for each dog in the absence of any drug. Then the bottle of saline was changed for a solution of histamine. 2HCl at a concentration of […] in saline. The dripping was adjusted to 20 drops per minute (984 µg histamine/hour) After the plateau of augmented gastric secretion was reached, B-407 was administered.\nAcid concentration, expressed as mEq H+/l was determined by titration with sodium hydroxide."}, "[3]": {"test_system": "rat uterus under diestrous condition", "assay": "C2: effect on PGF2α induced in vitro contraction of rat uterus under diestrous condition", "details": "B-407 1x10^-8 M; PGF2α 10^-9M; nutrient solution 1,04; p < 0.02", "method": "(§1) Then, a known concentration of the test prostaglandin was added and no washing was carried out during the following 15 minutes. PGF2α (10^-8 M) was added, washing once after 2 minutes and then twice over a total time period of 15 minutes. The result was expressed as the relationship between the effect of PGF2α after the treatment with B-407 and the sum of the effect of PGF2α (mean of the three initial additions) and the effect of B-407 \"per se\". The recordings of the contractions and their quantitation were performed as described in (A).\nThe experimental conditions were identical to those described in B2 and the working protocol was similar to that of C1 but the PGF2α concentration was of 10^-9M. The recordings of the contractions and their quantitation were performed as described in (A).\n* p < 0.05: Tested vs. nutrient solution by ANOVA and Scheffe. ** p < 0.02: Tested vs. nutrient solution by Student's-t-test. Ratio = Effect of PGF2α after B-407/(Effect of PG F2α before B-407 + Effect of B-407). […]\nThe frequency and magnitude of the responses were globally evaluated by calculating the total area recorded at a fixed time period as will be further explained. […]\nThe calibration was made by weighing a piece of paper which corresponded to a tension of 1 g at the working sensitivity along 2 minutes. […] The results were expressed as the mean ± the standard error of the areas obtained. […]"}, "[4]": {"test_system": "rat uterus under estrous condition", "assay": "C1: effect on PGF2α induced in vitro contraction of rat uterus under estrous condition", "details": "PGF2α 10^-8 M, nutrient solution 0,84", "method": "The experimental conditions were identical to those described in part A for the concentration-response curves without spontaneous contractions.\nThe uterus was allowed to equilibrate in a 10^-8 M PGF2α solution for 2 minutes, then the uterus was washed again during 15 minutes. This whole treatment was repeated twice.\nas §1\n* p < 0.05: Tested vs. nutrient solution by ANOVA and Scheffe. ** p < 0.02: Tested vs. nutrient solution by Student's-t-test. Ratio = Effect of PGF2α after B-407/(Effect of PG F2α before B-407 + Effect of B-407). S.E. = Standard Error\nThe frequency and magnitude of the responses were globally evaluated by calculating the total area recorded at a fixed time period as will be further explained. The areas under the curve of the recording paper, over 15 minutes periods, were cut and weighed both in the concentration-response curves and in the potentiating experiments.\nThe calibration was made by weighing a piece of paper which corresponded to a tension of 1 g at the working sensitivity along 2 minutes. Therefore, a relationship of area expressed in g/2 min was obtained and then the weights of the areas of the responses were transformed to unities of area. The results were expressed as the mean ± the standard error of the areas obtained. The statistical evaluation of the differences was carried out either by ANOVA or by Student's-t-test, as appropriate."}, "[5]": {"details": "Canis lupus familiaris, iv, read-out: VOLUME % Inhib."}},
  "note": "Where two headings read alike, the source gives them in different places.",
  "data": [
    {"molecule": "CCCCC(C)(O)C/C=C/[C@H]1[C@H](O)CC(=O)[C@@H]1CCCC/C=C/C(=O)OC", "note": "(mixture of isomers) [B-407, trans-Δ^2-15-deoxy-16-hydroxy-16-methyl PGE1 methyl ester]", "values": [
      {"measurement": "Higher lasting time", "setting": "[1]; 10 µg/kg", "result": "0,66 min"},
      {"measurement": "HR (Heart Rate)", "setting": "[1]; 10 µg/kg", "result": "430,6 ± 7,2 Beats / min"},
      {"measurement": "Δ MBP (Mean Blood Pressure)", "setting": "[1]; 10 µg/kg", "result": "-11,0 ± 1,3 mm Hg"},
      {"measurement": "Higher lasting time", "setting": "[1]; 30 µg/kg", "result": "2,5 min"},
      {"measurement": "HR (Heart Rate)", "setting": "[1]; 30 µg/kg", "result": "420,7 ± 4,1 Beats / min"},
      {"measurement": "Δ MBP (Mean Blood Pressure)", "setting": "[1]; 30 µg/kg", "result": "-29,8 ± 3,8 mm Hg"},
      {"measurement": "Higher lasting time", "setting": "[1]; 100 µg/kg", "result": "5,5 min"},
      {"measurement": "HR (Heart Rate)", "setting": "[1]; 100 µg/kg", "result": "452,7 ± 16,7 Beats / min"},
      {"measurement": "Δ MBP (Mean Blood Pressure)", "setting": "[1]; 100 µg/kg", "result": "-47,7 ± 3,3 mm Hg"},
      {"measurement": "inhibition at 0.003 mg/kg", "setting": "[2]; Canis lupus familiaris, iv, read-out: ACIDITY % Inhib", "result": 59.7, "unit": "%"},
      {"measurement": "inhibition at 0.001 mg/kg", "setting": "[2]; [5]", "result": 15.2, "unit": "%"},
      {"measurement": "inhibition at 0.003 mg/kg", "setting": "[2]; [5]", "result": 93.7, "unit": "%"},
      {"measurement": "ACIDITY % Inhib", "setting": "[2]; i.g. 10 µg/kg", "result": "42,5%"},
      {"measurement": "VOLUME % Inhib.", "setting": "[2]; i.g. 10 µg/kg", "result": "24,3%"},
      {"measurement": "VOLUME Max.eff. B-407", "setting": "[2]; i.g. 10 µg/kg, histamine plateau 42,0±3,6", "result": "31,8±6,2 ml/15min"},
      {"measurement": "ACIDITY Max.Eff. B-407", "setting": "[2]; i.g. 10 µg/kg, histamine plateau 122,4±9,7", "result": "70,4±11,8 mEq.H^+/l"},
      {"measurement": "ACIDITY % Inhib", "setting": "[2]; i.g. 30 µg/kg", "result": "31,8%"},
      {"measurement": "VOLUME % Inhib.", "setting": "[2]; i.g. 30 µg/kg", "result": "36,3%"},
      {"measurement": "VOLUME Max.eff. B-407", "setting": "[2]; i.g. 30 µg/kg, histamine plateau 38,3±2,6", "result": "24,4±3,1 ml/15min"},
      {"measurement": "ACIDITY Max.Eff. B-407", "setting": "[2]; i.g. 30 µg/kg, histamine plateau 143,4±3,2", "result": "97,8±13,2 mEq.H^+/l"},
      {"measurement": "VOLUME Max.eff. B-407", "setting": "[2]; i.v. 1 µg/kg, histamine plateau 39,5±3,4", "result": "33,5±3,6 ml/15min"},
      {"measurement": "VOLUME Max.eff. B-407", "setting": "[2]; i.v. 3 µg/kg, histamine plateau 43,2±4,6", "result": "2,7±1,3 ml/15min"},
      {"measurement": "ACIDITY Max.Eff. B-407", "setting": "[2]; i.v. 3 µg/kg, histamine plateau 145,3±3,0", "result": "58,5±16,0 mEq.H^+/l"},
      {"measurement": "VOLUME % Inhib.", "setting": "[2]; i.vag 10 µg/kg (n=3)", "result": "100,0%"},
      {"measurement": "VOLUME Max.eff. B-407", "setting": "[2]; i.vag 10 µg/kg (n=3), histamine plateau 43,0±2,0", "result": "0,0 ml/15min"},
      {"measurement": "ACIDITY % Inhib", "setting": "[2]; i.vag 30 µg/kg (n=2)", "result": "67,3%"},
      {"measurement": "VOLUME % Inhib.", "setting": "[2]; i.vag 30 µg/kg (n=2)", "result": "93,8%"},
      {"measurement": "VOLUME Max.eff. B-407", "setting": "[2]; i.vag 30 µg/kg (n=2), histamine plateau 38,5±8,5", "result": "2,4±1,7 ml/15min"},
      {"measurement": "ACIDITY Max.Eff. B-407", "setting": "[2]; i.vag 30 µg/kg (n=2), histamine plateau 118,9±4,3", "result": "38,9±19,9 mEq.H^+/l"},
      {"measurement": "ACIDITY % Inhib", "setting": "[2]; i.vag. 1 µg/kg", "result": "24,4%"},
      {"measurement": "VOLUME % Inhib.", "setting": "[2]; i.vag. 1 µg/kg", "result": "30,5%"},
      {"measurement": "VOLUME Max.eff. B-407", "setting": "[2]; i.vag. 1 µg/kg, histamine plateau 50,8±2,4", "result": "35,3±5,3 ml/15min"},
      {"measurement": "ACIDITY Max.Eff. B-407", "setting": "[2]; i.vag. 1 µg/kg, histamine plateau 134,2±6,4", "result": "101,4±13,3 mEq.H^+/l"},
      {"measurement": "ACIDITY % Inhib", "setting": "[2]; i.vag. 3 µg/kg", "result": "71,5%"},
      {"measurement": "VOLUME % Inhib.", "setting": "[2]; i.vag. 3 µg/kg", "result": "98,4%"},
      {"measurement": "VOLUME Max.eff. B-407", "setting": "[2]; i.vag. 3 µg/kg, histamine plateau 49,1±2,5", "result": "0,8±0,4 ml/15min"},
      {"measurement": "ACIDITY Max.Eff. B-407", "setting": "[2]; i.vag. 3 µg/kg, histamine plateau 132,6±8,7", "result": "37,8±12,7 mEq.H^+/l"},
      {"measurement": "Ratio = Effect of PGF2α after B-407/(Effect of PG F2α before B-407 + Effect of B-407)", "setting": "[3]", "result": "2,35"},
      {"measurement": "Ratio = Effect of PGF2α after B-407/(Effect of PG F2α before B-407 + Effect of B-407)", "setting": "[4]; B-407 3x10^-7 M, p < 0.05", "result": "2,06"},
      {"measurement": "Ratio = Effect of PGF2α after B-407/(Effect of PG F2α before B-407 + Effect of B-407)", "setting": "[4]; B-407 3x10^-8 M", "result": "1,69"},
      {"measurement": "Ratio = Effect of PGF2α after B-407/(Effect of PG F2α before B-407 + Effect of B-407)", "setting": "[4]; B-407 3x10^-9 M", "result": "1,29"}
    ]}
  ]
}
